From patent publication US9115122B2, “Non-ATP dependent inhibitors of extracellular signal-regulated kinase (ERK)” (UNIVERSITY OF MARYLAND, BALTIMORE, priority 2012, dated 2015)

What was measured:
Test in all cases: Cell proliferation WST-1 assay, single dose (Example 4)
Assay type in all cases: cell-based
Conditions in all cases: 100 μM, 48 hours
A375 melanoma cells = test system: A375 melanoma cells
Method: (§1) In addition, compounds were tested in RPMI-7951 cells, which also contain mutated BRaf and are resistant to BRaf inhibitors due to the overexpression of MAP3K8 (the gene encoding COT/Tp12) that provides an alternative mechanism to indirectly or directly activate ERK proteins. […] For comparison, HeLa cervical carcinoma and Jurkat T-cell leukemia cells, which are p53 defective cancer cell lines but contain no known activating mutations in the ERK pathway, were studied. […] Cell proliferation was evaluated by water soluble tetrazolium-1 (WST-1) assay as previously described. Briefly, cells (˜5000/well) were seeded in 96 well plates, allowed to recover for 16-20 hours, and then treated with the indicated test compound for 48 hours. After incubation, WST-1 reagent was added and absorbance was read at 450 nm with background subtraction taken at 650 nm. Values were normalized to the control (DMSO only treated) cells.

SK-MEL-28 melanoma cells = test system: SK-MEL-28 melanoma cells
Method: as §1

RPMI-7951 melanoma cells = test system: RPMI-7951 melanoma cells
Method: as §1

[1] = test system: Jurkat T-cell leukemia cells
Method: as §1

[2] = test system: HeLa cervical carcinoma cells
Method: as §1

HL-60 leukemic cells = test system: HL-60 leukemic cells
Method: as §1

Row | Compound | Cell Viability (% of Vehicle) A375 (A375 melanoma cells) | Cell Viability (% of Vehicle) SK-MEL-28 (SK-MEL-28 melanoma cells) | Cell Viability (% of Vehicle) RPMI-7951 (RPMI-7951 melanoma cells) | Cell Viability (% of Vehicle) Jurkat [1] | Cell Viability (% of Vehicle) HeLa [2] | Cell Viability (% of Vehicle) HL-60 (HL-60 leukemic cells)
1 | CCOc1ccc(/C=C2\SC(=O)N(Cc3cccc(C(=O)O)c3)C2=O)cc1 [Compound 28r, (Z)-3-((5-(4-ethoxybenzylidene)-2,4-dioxothiazolidin-3-yl)methyl)benzoic acid] | 59 ± 1 % of Vehicle | 83 ± 7 % of Vehicle | 83 ± 6 % of Vehicle | 80 ± 3 % of Vehicle | 75 ± 4 % of Vehicle | 41 ± 22 % of Vehicle
2 | CCNCCN1C(=O)S/C(=C\c2ccc(OCC)cc2)C1=O [Compound 23b, (Z)-5-(4-ethoxybenzylidene)-3-(2-(ethylamino)ethyl)thiazolidine-2,4-dione] | 51 ± 4 % of Vehicle | 63 ± 10 % of Vehicle | 60 ± 4 % of Vehicle | 69 ± 10 % of Vehicle | 81 ± 2 % of Vehicle | 14 ± 4 % of Vehicle
3 | CCOc1ccc(/C=C/C(=O)NCCN)cc1 [Compound 20, (E)-N-(2-aminoethyl)-3-(4-ethoxyphenyl)acrylamide] | 81 ± 5 % of Vehicle | 83 ± 4 % of Vehicle | 93 ± 9 % of Vehicle | 89 ± 7 % of Vehicle | 94 ± 5 % of Vehicle | 59 ± 25 % of Vehicle
4 | CCOc1ccc(/C=C2\SC(=O)N(CC(=O)OC(C)(C)C)C2=O)cc1 [Compound 28g, (Z)-tert-butyl 2-(5-(4-ethoxybenzylidene)-2,4-dioxothiazolidin-3-yl)acetate] | 117 ± 7 % of Vehicle | 101 ± 2 % of Vehicle | 110 ± 3 % of Vehicle | 108 ± 3 % of Vehicle | 88 ± 7 % of Vehicle | 95 ± 18 % of Vehicle
5 | Cc1ccc(/C=C2\SC(=O)N(CCN)C2=O)cc1 [Compound 30d, (Z)-3-(2-aminoethyl)-5-(4-methylbenzylidene)thiazolidine-2,4-dione] | 23 ± 6 % of Vehicle | 31 ± 7 % of Vehicle | 23 ± 1 % of Vehicle | 71 ± 6 % of Vehicle | 54 ± 3 % of Vehicle | 4.8 ± 2 % of Vehicle
6 | CCOc1ccc(/C=C2\SC(=O)N(CC(C)N)C2=O)cc1 (stereo not drawn) [Compound 22b, (Z)-3-(2-aminopropyl)-5-(4-ethoxybenzylidene)thiazolidine-2,4-dione] | 25 ± 4 % of Vehicle | 32 ± 4 % of Vehicle | 16 ± 1 % of Vehicle | 58 ± 10 % of Vehicle | 49 ± 7 % of Vehicle | 7.3 ± 3 % of Vehicle
7 | CCOc1ccc(/C=C2\CCN(CCN)C2=O)cc1 [Compound 17, (E)-1-(2-aminoethyl)-3-(4-ethoxybenzylidene)pyrrolidin-2-one] | 95 ± 2 % of Vehicle | 79 ± 6 % of Vehicle | 96 ± 3 % of Vehicle | 92 ± 2 % of Vehicle | 89 ± 4 % of Vehicle | 73 ± 9 % of Vehicle
8 | CCCc1ccc(/C=C2\SC(=O)N(CCN)C2=O)cc1 [Compound 30e, (Z)-3-(2-aminoethyl)-5-(4-propylbenzylidene)thiazolidine-2,4-dione] | 0.6 ± 0.1 % of Vehicle | 0.6 ± 0.4 % of Vehicle | 0.7 ± 0.1 % of Vehicle | 16 ± 8 % of Vehicle | 11 ± 2 % of Vehicle | 5.9 ± 2 % of Vehicle
9 | CCOc1ccc(/C=C2\SC(=O)N(Cc3ccncc3)C2=O)cc1 [Compound 28l, (Z)-5-(4-ethoxybenzylidene)-3-(pyridin-4-ylmethyl)thiazolidine-2,4-dione] | 105 ± 12 % of Vehicle | 79 ± 3 % of Vehicle | 102 ± 3 % of Vehicle | 96 ± 11 % of Vehicle | 81 ± 5 % of Vehicle | 82 ± 54 % of Vehicle
10 | CCOc1ccc(/C=C2\SC(=O)N(Cc3ccccc3C(=O)O)C2=O)cc1 [Compound 28s, (Z)-2-((5-(4-ethoxybenzylidene)-2,4-dioxothiazolidin-3-yl)methyl)benzoic acid] | 39 ± 1 % of Vehicle | 49 ± 8 % of Vehicle | 45 ± 8 % of Vehicle | 46 ± 1 % of Vehicle | 61 ± 4 % of Vehicle | 31 ± 15 % of Vehicle
11 | CCOc1ccc(/C=C2\SC(=O)N(CCN(C)C)C2=O)cc1 [Compound 24a, (Z)-3-(2-(dimethylamino)ethyl)-5-(4-ethoxybenzylidene)thiazolidine-2,4-dione] | 115 ± 2 % of Vehicle | 101 ± 0.3 % of Vehicle | 130 ± 4 % of Vehicle | 95 ± 1 % of Vehicle | 90 ± 5 % of Vehicle | 110 ± 14 % of Vehicle
12 | CCOc1ccc(/C=C2\CC(=O)N(CCN)C2=O)cc1 [Compound 13, (E)-1-(2-aminoethyl)-3-(4-ethoxybenzylidene)pyrrolidine-2,5-dione] | 29 ± 3 % of Vehicle | 65 ± 4 % of Vehicle | 19 ± 5 % of Vehicle | 100 ± 10 % of Vehicle | 75 ± 2 % of Vehicle | 58 ± 28 % of Vehicle
13 | CCOc1ccc(/C=C2\SC(=O)N(Cc3ccccc3)C2=O)cc1 [Compound 28i, (Z)-3-benzyl-5-(4-ethoxybenzylidene)thiazolidine-2,4-dione] | 110 ± 4 % of Vehicle | 90 ± 3 % of Vehicle | 114 ± 20 % of Vehicle | 105 ± 4 % of Vehicle | 95 ± 4 % of Vehicle | 65 ± 1 % of Vehicle
14 | CCOc1ccc(/C=C2\SC(=O)N(CCNCc3ccc(C#N)cc3)C2=O)cc1 [Compound 23e, (Z)-4-(((2-(5-(4-ethoxybenzylidene)-2,4-dioxothiazolidin-3-yl)ethyl)amino)methyl)benzonitrile] | 89 ± 3 % of Vehicle | 96 ± 6 % of Vehicle | 96 ± 5 % of Vehicle | 98 ± 5 % of Vehicle | 88 ± 2 % of Vehicle | 75 ± 25 % of Vehicle
